Laboratory results taken from patent publication US20210025110A1, “ORGANIC ANTIMICROBIAL TEXTILE” (Livinguard AG, priority 2018, published 2021).

Tests used:
[1] = tested on: S. aureus ATCC 6538; test: AATCC 100-2012 antimicrobial performance of treated textile, S. aureus; assay type: cell-based, Staphylococcus aureus
Method: (§1) Antimicrobial performance of antimicrobial textiles according to the invention were performed following the AATCC 100-2012 test method. The AATCC 100-2012 test procedure for antimicrobial performance is described in detail in AATCC Technical Manual 2013, p. 166-168. Briefly, 3 circular swatches of 48 mm diameter were prepared from autoclaved (121° C., 15 min) textile samples, and a defined number of swatches was added to a 250 ml Erlenmeyer flask. 1 ml of prepared inoculum (in phosphate buffered water) was spot onto the swatches. […] The 0 minute contact time was immediately analyzed after inoculation. For the other contact times, the Erlenmeyer flask was sealed immediately after inoculation and incubated at 37° C. for the respective contact times. After the defined contact time, 100 ml of Dey-Engley Neutralizing broth was added to each flask, and the flask was shaken for one minute by hand. A dilution series was prepared and each dilution sample was plated on a nutrient agar. Agar plates were incubated at 37° C. for 24 and 48 hours. The Log Reduction (R) of bacteria was calculated by: B[log(number bacteria recovered from the inoculated treated test specimen swatches in the jar immediately after inoculation, i.e. at 0 contact time)]−A[log(number of bacteria recovered from the inoculated treated test specimen swatches in the jar incubated over the desired contact period)].

[2] = tested on: P. aeruginosa ATCC 9027; test: AATCC 100-2012 antimicrobial performance of treated textile, P. aeruginosa; assay type: cell-based
Method: as §1

[3] = tested on: E. coli; test: AATCC 100-2012 antimicrobial performance of treated textile, E. coli; assay type: cell-based

Row | Structure (SMILES) | Log Reduction (R) after 1 hour, S. aureus ([1]; Table 1, 100% viscose, L-arginine, 10 washes, 1 hour contact) | reduction of S. aureus after 1 hour ([1]; Table 1 textiles, L-arginine on viscose, 1 hour) | Log Reduction (R) after 10 min, P. aeruginosa ([2]; Table 1, 100% viscose, L-arginine, 10 washes, 10 min contact) [Log cfu/ml] | reduction of P. aeruginosa after 10 minutes ([2]; Table 1 textiles, L-arginine on viscose, 10 min) [%] | reduction of E. coli after 24 hours ([3]; Table 10, L-arginine 12% on cotton) [%] | Log Reduction (R) after 24 hours against E. coli, wash cycle 0 (unwashed) ([3]; Table 10, 100% cotton, L-arginine 120 gpl, liquor pH per sample ID, unwashed, 24 hours) [Log cfu/ml] | Log Reduction (R) after 30 min, P. aeruginosa ([2]; Table 2, 100% viscose, L-carnitine, 0 or 10 washes per sample ID, 30 min contact) [Log cfu/ml] | reduction of P. aeruginosa after 30 minutes ([2]; Table 2 textiles, L-carnitine on viscose, 30 min) [%]
1 | N=C(N)NCCC[C@H](N)C(=O)O [L-arginine] | about 1 Log cfu/ml | about 90% | 2.76 | > 99 | > 99.99 | > 4.41 |  | 
2 | C[N+](C)(C)C[C@H](O)CC(=O)O [L-carnitine] |  |  |  |  |  |  | 2.82 | > 99
